Source: patent publication US12491203B2, “Use of mannose 6 phosphate and modifications thereof for memory enhancement and reducing memory impairment” (New York University, priority 2018, dated 2025)
“Also recorded” adds a separate entry of the source.

Experiments:
Ube3a-/+ (AS) mice = test: novel object recognition (nOR) paradigm in mouse model of Angelman syndrome; assay type: in vivo
Description: (§1) FIG. 2. M6P reverses object recognition memory deficits in a mouse model of Angelman syndrome and enhances memory in WT mice. Experimental timelines are shown above graphs. In all experiments mice received a s.c. injection of vehicle or M6P (↑) 20 min before nOR training or testing. Percent exploration preference for a novel object compared to a familiar object during novel object recognition of WT (Control) and Ube3a−/+(AS) mice injected with vehicle or M6P (labeled as IGF-2R.L1), 20 min before training, tested at 4 h and 24 h after training. N=4/group. All data are expressed as the mean (±s.e.m.). Two-way analysis of variance (ANOVA) followed by Tukey post-hoc tests. *P<0.05, **P<0.01, ***P<0.001.
(§2) FIG. 6. PnM6P (L2) reverses object recognition memory deficits in a mouse model of Angelman syndrome. Experimental timeline is shown above graphs. Mice received a s.c. injection of either vehicle or 850 μg/Kg of phosphonate-M6P (PnM6P) called IGF-2R.L2 (or L2) (↑) 20 min before either training or testing. (A) Percent exploration preference for a novel object compared to a familiar object during the nOR paradigm of wild type (WT served as Control mice) and Ube3a−/+(AS) mice injected with vehicle or L2 before training, and tested at 4 h, 24 h and 5 days (5d) after training. N=4/group. Data are expressed as the % mean±s.e.m. (B). Total time spent exploring the 2 objects during the nOR training session of WT and AS mice injected with vehicle or L2 20 min before training. N=4/per group. […] Data are expressed in seconds (s). Two-way analysis of variance (ANOVA) followed by Bonferroni post-hoc tests. *P<0.05, **P<0.01, ***P<0.001.
Specifically, we used the novel object recognition (nOR) paradigm in mice to assess non-aversive episodic memory. In this task, the innate preference for novelty of the rodent is used. During training, the mouse is allowed to explore 2 identical objects. On test day, one of the training objects is replaced with a novel object. Because mice have an innate preference for novelty, if the mouse recognizes the familiar object, it will spend more time at the novel object.

[1] = system: normal (wild type, WT) mice; test: novel object recognition (nOR) paradigm in normal (wild type) mice; assay type: in vivo, mouse
Description: FIG. 1. Dose-response curve of the effect of M6P, also called IGF2R.L1 (L1) on nOR in normal (wild type, WT) mice. Experimental timeline is shown above graphs. Data are expressed as the mean±s.e.m. N=4 per group. One-way analysis of variance (ANOVA) followed by Bonferroni post-hoc tests. *P<0.05, **P<0.01. WT mice were injected s.c. with vehicle solution or different doses of IGF2R.L1 (L1) 20 min prior to training on nOR. Graphs show percent exploration preference for the novel object compared to the familiar object at testing performed at 4 h and 24 h after training.
as §1
FIG. 4. An M6P derivative, phosphonate M6P (PnM6P), enhances memory in mice. Experimental timeline is shown above graphs. Mice received a s.c. injection of either vehicle or 850 μg/Kg of phosphonate-M6P (PnM6P) called IGF-2R.L2 (or L2) (↑) 20 min before training. (A) Percent exploration preference for a novel object compared to a familiar object during the nOR paradigm of mice injected with vehicle or L2 20 min before training, and tested at 24 h (Test 1), 5 days (Test 2) and 14 days (Test 3) after training. N=8-10/group. Data are expressed as the % mean±s.e.m. (B). Total time spent exploring both objects during the nOR training session of mice injected with vehicle or L2 20 min before training. N=4 per group. […] Data are expressed in seconds (s). Two-way analysis of variance (ANOVA) followed by Bonferroni post-hoc tests. *P<0.05, **P<0.01, ***P<0.001.
FIG. 5. Comparing M6P (L1) and PnM6P (L2) effects on memory retention: both L1 and L2 similarly enhance nOR in mice. Experimental timeline is shown above graphs. Mice received a s.c. injection of either vehicle or 850 μg/Kg of phosphonate-M6P (PnM6P) called IGF-2R.L2 (or L2) or 850 μg/Kg of M6P (IGF-2R.L1 or L1) (↑) 20 min before training. (A) Percent exploration preference for a novel object compared to a familiar object during the nOR paradigm of mice injected with vehicle, L2 or L1 20 min before training, and tested at 24 h (Test 1), 5 days (Test 2) and 14 days (Test 3) after training. N=4-10/group. Data are expressed as the % mean±s.e.m. (B). Total time spent exploring both objects during the nOR training session of mice injected with vehicle, L2 or L1 20 min before training. N=2-4 per group. […] Data are expressed in seconds (s). Two-way analysis of variance (ANOVA) followed by Bonferroni post-hoc tests. *P<0.05, **P<0.01, ***P<0.001.
as §2, with “Two-way analysis of variance (ANOVA) followed by Bonferroni post-hoc tests. *P<0.05, **P<0.01, ***P<0.001.” left out

adult rats = test: inhibitory avoidance (IA) contextual fear memory task, intra-hippocampal injection; assay type: in vivo, rat; settings: for avoidance memory (latency) vs vehicle: bilateral intra-hippocampal injection immediately after training
Description: FIG. 3. M6P injected into the hippocampus of rats enhances memory: dose-response curve. Experimental timeline is shown above graph. Rats received a bilateral intra-hippocampal injection of vehicle or different doses of IGF-2R.L1 (M6P) (↑) immediately after training in the contextual fear memory task inhibitory avoidance (IA). Memory retention was then tested at 24 hours (T1) and 7 days (T2) after training. Testing measured the latency to enter the compartment in which the animals received a foot shock during training. N=12/group. All data are expressed as the mean (±s.e.m.). Two-way repeated measures analysis of variance (ANOVA) followed by Bonferroni post-hoc tests. *P<0.05, **P<0.01, ***P<0.001. […] In these experiments, adult rats were trained in the inhibitory avoidance (IA) paradigm. In this paradigm the animals learn to avoid a chamber paired with a foot-shock.

[2] = WT mice, 850 μg/Kg s.c. 20 min before training, tested 14 days after training

Structure (SMILES)	nOR memory deficit reversal (Ube3a-/+ (AS) mice; s.c. injection 20 min before training, tested 4 h after training (FIG. 2))	nOR memory retention vs vehicle (Ube3a-/+ (AS) mice; s.c. injection 20 min before training, tested 24 h after training (FIG. 2))	nOR memory (exploration preference for novel object) vs vehicle ([1]; WT control mice, s.c. injection 20 min before training, tested 4 h after training (FIG. 2))	nOR memory retention vs vehicle ([1]; WT control mice, s.c. injection 20 min before training, tested 24 h after training (FIG. 2))	nOR memory retention vs vehicle [1, 2]	avoidance memory (latency) vs vehicle (adult rats; retested 6 days later (7 days after training, T2))	avoidance memory (latency) vs vehicle (adult rats; tested 1 day (24 h, T1) after training)	dose dependence of memory-enhancing effect (adult rats; bilateral intra-hippocampal injection, different doses)	nOR memory deficit reversal (Ube3a-/+ (AS) mice; 850 μg/Kg s.c. 20 min before training, tested 4 h after training (FIG. 6))	nOR memory vs vehicle (Ube3a-/+ (AS) mice; 850 μg/Kg s.c. 20 min before training, tested 24 h after training (FIG. 6))	nOR memory vs vehicle ([1]; WT mice, 850 μg/Kg s.c. 20 min before training, tested 4 h after training (FIG. 6))	nOR memory retention vs vehicle ([1]; WT mice, 850 μg/Kg s.c. 20 min before training, tested 24 h after training)	nOR memory retention vs vehicle ([1]; WT mice, 850 μg/Kg s.c. 20 min before training, tested 5 days after training)
O=C[C@@H](O)[C@@H](O)[C@H](O)[C@H](O)COP(=O)(O)O [L1, mannose-6-phosphate]	reversed memory deficits in AS mice	significantly increased memory retention in both groups	significant memory enhancement	significantly increased memory retention in both groups	returned to baseline	effect persisted	significant increase in avoidance memory	dose dependent					
COC1OC(CCP(=O)(OCOC(=O)OC(C)C)OCOC(=O)OC(C)C)C(O)C(O)C1O [L2, Methyl 6-Deoxy-6-diisopropyloxycarbonyloxy-methyl-phosphinylmethyl-α-D-mannopyranoside]					memory enhancement was no longer seen; also recorded: returned to baseline				reversed memory deficits in AS mice	significant memory in both groups	enhanced memory	significantly increased memory retention at both timepoints; also recorded: significant memory in both groups	significantly increased memory retention at both timepoints
